system: Hepatotoxicity; assay: FDA HLAED, liver enzyme composite activity; conditions: human
Throughout, for GGT Increase - Index Value: reference of the scale not given here.
Throughout, for LDH Increase - Index Value: reference of the scale not given here.

Structure (SMILES)	Composite Activity - Active	Composite Activity - Marginal	Composite Activity - Score
CC1=C(/C=C/C(C)=C/C=C/C(C)=C/C(=O)O)C(C)(C)CCC1 [TRETINOIN]	0	0	Inactive
Cc1nnc2n1-c1ccc(Cl)cc1C(c1ccccc1Cl)=NC2 [TRIAZOLAM]	0	0	Inactive
O=c1[nH]c(=O)n([C@H]2C[C@H](O)[C@@H](CO)O2)cc1C(F)(F)F [TRIFLURIDINE]	0	0	Inactive
CN1C(=O)OC(C)(C)C1=O [TRIMETHADIONE]	2	3	Active
COc1cc(NCc2ccc3nc(N)nc(N)c3c2C)cc(OC)c1OC [TRIMETREXATE]	1	0	Inactive
CC(CN(C)C)CN1c2ccccc2CCc2ccccc21 (configuration not stated) [TRIMIPRAMINE]	0	0	Inactive
C[C@H](CCC(=O)O)[C@H]1CC[C@H]2[C@@H]3[C@@H](O)C[C@@H]4C[C@H](O)CC[C@]4(C)[C@H]3CC[C@]12C [URSODIOL]	2	0	Active
CC(C)[C@H](N)C(=O)OCCOCn1cnc2c(=O)[nH]c(N)nc21 [VALACYCLOVIR]	0	0	Inactive

same assay, conditions: human, Liver

Structure (SMILES)	Composite Activity - Active	Composite Activity - Marginal	Composite Activity - Score
NCCNCCNCCN [TRIENTINE]	0	0	Inactive

system: Hepatotoxicity; assay: FDA HLAED, alkaline phosphatase increase; conditions: human

Structure (SMILES)	Alkaline Phosphatase Increase - Activity Score	Alkaline Phosphatase Increase - Index Value	Alkaline Phosphatase Increase - Number of Reports
CC1=C(/C=C/C(C)=C/C=C/C(C)=C/C(=O)O)C(C)(C)CCC1 [TRETINOIN]	Inactive	1	< 4
Cc1nnc2n1-c1ccc(Cl)cc1C(c1ccccc1Cl)=NC2 [TRIAZOLAM]	Inactive	0.4	< 4
NCCNCCNCCN [TRIENTINE]	Inactive	0	< 4
O=c1[nH]c(=O)n([C@H]2C[C@H](O)[C@@H](CO)O2)cc1C(F)(F)F [TRIFLURIDINE]	Inactive	0	< 4
CN1C(=O)OC(C)(C)C1=O [TRIMETHADIONE]	Active	No Shipping Units	>= 4
COc1cc(NCc2ccc3nc(N)nc(N)c3c2C)cc(OC)c1OC [TRIMETREXATE]	Inactive	38.8	< 4
CC(CN(C)C)CN1c2ccccc2CCc2ccccc21 (configuration not stated) [TRIMIPRAMINE]	Inactive	0	< 4
C[C@H](CCC(=O)O)[C@H]1CC[C@H]2[C@@H]3[C@@H](O)C[C@@H]4C[C@H](O)CC[C@]4(C)[C@H]3CC[C@]12C [URSODIOL]	Active	14.5	>= 4
CC(C)[C@H](N)C(=O)OCCOCn1cnc2c(=O)[nH]c(N)nc21 [VALACYCLOVIR]	Inactive	No Shipping Units	< 4

system: Hepatotoxicity; assay: FDA HLAED, serum glutamic oxaloacetic transaminase (SGOT) increase; conditions: human

Structure (SMILES)	SGOT Increase - Activity Score	SGOT Increase - Index Value	SGOT Increase - Number of Reports
CC1=C(/C=C/C(C)=C/C=C/C(C)=C/C(=O)O)C(C)(C)CCC1 [TRETINOIN]	Inactive	0	< 4
Cc1nnc2n1-c1ccc(Cl)cc1C(c1ccccc1Cl)=NC2 [TRIAZOLAM]	Inactive	0.3	< 4
NCCNCCNCCN [TRIENTINE]	Inactive	69.4	< 4
O=c1[nH]c(=O)n([C@H]2C[C@H](O)[C@@H](CO)O2)cc1C(F)(F)F [TRIFLURIDINE]	Inactive	0	< 4
CN1C(=O)OC(C)(C)C1=O [TRIMETHADIONE]	Active	No Shipping Units	>= 4
COc1cc(NCc2ccc3nc(N)nc(N)c3c2C)cc(OC)c1OC [TRIMETREXATE]	Active	77.5	< 4
CC(CN(C)C)CN1c2ccccc2CCc2ccccc21 (configuration not stated) [TRIMIPRAMINE]	Inactive	0	< 4
C[C@H](CCC(=O)O)[C@H]1CC[C@H]2[C@@H]3[C@@H](O)C[C@@H]4C[C@H](O)CC[C@]4(C)[C@H]3CC[C@]12C [URSODIOL]	Active	9.7	>= 4
CC(C)[C@H](N)C(=O)OCCOCn1cnc2c(=O)[nH]c(N)nc21 [VALACYCLOVIR]	Inactive	No Shipping Units	< 4

system: Hepatotoxicity; assay: FDA HLAED, serum glutamic pyruvic transaminase (SGPT) increase; conditions: human

Structure (SMILES)	SGPT Increase - Activity Score	SGPT Increase - Index Value	SGPT Increase - Number of Reports
CC1=C(/C=C/C(C)=C/C=C/C(C)=C/C(=O)O)C(C)(C)CCC1 [TRETINOIN]	Inactive	0	< 4
Cc1nnc2n1-c1ccc(Cl)cc1C(c1ccccc1Cl)=NC2 [TRIAZOLAM]	Inactive	0	< 4
NCCNCCNCCN [TRIENTINE]	Inactive	69.4	< 4
O=c1[nH]c(=O)n([C@H]2C[C@H](O)[C@@H](CO)O2)cc1C(F)(F)F [TRIFLURIDINE]	Inactive	0	< 4
CN1C(=O)OC(C)(C)C1=O [TRIMETHADIONE]	Marginally Active	No Shipping Units	>= 4
COc1cc(NCc2ccc3nc(N)nc(N)c3c2C)cc(OC)c1OC [TRIMETREXATE]	Inactive	38.8	< 4
CC(CN(C)C)CN1c2ccccc2CCc2ccccc21 (configuration not stated) [TRIMIPRAMINE]	Inactive	0	< 4
C[C@H](CCC(=O)O)[C@H]1CC[C@H]2[C@@H]3[C@@H](O)C[C@@H]4C[C@H](O)CC[C@]4(C)[C@H]3CC[C@]12C [URSODIOL]	Inactive	4.8	< 4
CC(C)[C@H](N)C(=O)OCCOCn1cnc2c(=O)[nH]c(N)nc21 [VALACYCLOVIR]	Inactive	No Shipping Units	< 4

system: Hepatotoxicity; assay: FDA HLAED, lactate dehydrogenase (LDH) increase; conditions: human

Structure (SMILES)	LDH Increase - Activity Score	LDH Increase - Index Value	LDH Increase - Number of Reports
CC1=C(/C=C/C(C)=C/C=C/C(C)=C/C(=O)O)C(C)(C)CCC1 [TRETINOIN]	Inactive	1	< 4
Cc1nnc2n1-c1ccc(Cl)cc1C(c1ccccc1Cl)=NC2 [TRIAZOLAM]	Inactive	0	< 4
NCCNCCNCCN [TRIENTINE]	Inactive	0	< 4
O=c1[nH]c(=O)n([C@H]2C[C@H](O)[C@@H](CO)O2)cc1C(F)(F)F [TRIFLURIDINE]	Inactive	0	< 4
CN1C(=O)OC(C)(C)C1=O [TRIMETHADIONE]	Marginally Active	No Shipping Units	>= 4
COc1cc(NCc2ccc3nc(N)nc(N)c3c2C)cc(OC)c1OC [TRIMETREXATE]	Inactive	38.8	< 4
CC(CN(C)C)CN1c2ccccc2CCc2ccccc21 (configuration not stated) [TRIMIPRAMINE]	Inactive	0	< 4
C[C@H](CCC(=O)O)[C@H]1CC[C@H]2[C@@H]3[C@@H](O)C[C@@H]4C[C@H](O)CC[C@]4(C)[C@H]3CC[C@]12C [URSODIOL]	Inactive	4.8	< 4
CC(C)[C@H](N)C(=O)OCCOCn1cnc2c(=O)[nH]c(N)nc21 [VALACYCLOVIR]	Inactive	0	< 4

system: Hepatotoxicity; assay: FDA HLAED, gamma-glutamyl transferase (GGT) increase; conditions: human

Structure (SMILES)	GGT Increase - Activity Score	GGT Increase - Index Value	GGT Increase - Number of Reports
CC1=C(/C=C/C(C)=C/C=C/C(C)=C/C(=O)O)C(C)(C)CCC1 [TRETINOIN]	Inactive	1	< 4
Cc1nnc2n1-c1ccc(Cl)cc1C(c1ccccc1Cl)=NC2 [TRIAZOLAM]	Inactive	0	< 4
NCCNCCNCCN [TRIENTINE]	Inactive	0	< 4
O=c1[nH]c(=O)n([C@H]2C[C@H](O)[C@@H](CO)O2)cc1C(F)(F)F [TRIFLURIDINE]	Inactive	0	< 4
CN1C(=O)OC(C)(C)C1=O [TRIMETHADIONE]	Marginally Active	No Shipping Units	>= 4
COc1cc(NCc2ccc3nc(N)nc(N)c3c2C)cc(OC)c1OC [TRIMETREXATE]	Inactive	0	< 4
CC(CN(C)C)CN1c2ccccc2CCc2ccccc21 (configuration not stated) [TRIMIPRAMINE]	Inactive	0	< 4
C[C@H](CCC(=O)O)[C@H]1CC[C@H]2[C@@H]3[C@@H](O)C[C@@H]4C[C@H](O)CC[C@]4(C)[C@H]3CC[C@]12C [URSODIOL]	Inactive	4.8	< 4
CC(C)[C@H](N)C(=O)OCCOCn1cnc2c(=O)[nH]c(N)nc21 [VALACYCLOVIR]	Inactive	0	< 4

— ChEMBL document CHEMBL1697781, “Assessment of the health effects of chemicals in humans: II. Construction of an adverse effects database for QSAR modeling” (Curr Drug Discov Technol, 2004)
